Tests used:
[1] = Hydroxyapatite (HAP) binding assay, NMR readout; conditions: in D2O, internal integration standard maleic acid, low HAP loading (FIG. 4C)
Procedure: The bone binding properties of bisphosphonates are due to their affinity for calcium in hydroxyapatite (HAP). Relative HAP binding capacity can be measured by incubating a solution of an analyte with HAP and measuring the proportion of compound remaining in the supernatant. […] Reliable quantification of a range of analytes can be obtained by using an inverse-gated decoupling pulse sequence and sufficiently long relaxation delays (d1).
The HAP binding assay was carried out under the following conditions: 1 mL of 4 mM analyte in 50 mM tris buffer at pH 7.5 is incubated with HAP (or no HAP for control) by inversion for 15 minutes. […] The procedure is illustrated in FIG. 3A.
The binding strengths of the OXY133-ALN conjugates of the present invention relative to ALN were determined and any differences in binding affinity contributed by the degree (mono- vs. bis-ALN linked conjugates), position (C3-OH vs. C6-OH), and nature (succinate vs. glycinate) of the Oxy133-ALN conjugates noted. ALN was used as a positive control and benzyl phosphonic acid (BnP) as an established negative control. 600 mg of HAP was used for the “large HAP loading” condition (FIG. 4A) and 150 mg of HAP was used for the “low HAP loading” condition (FIG. 4B).
Experimental conditions: 1 mL of 4 mM analyte in 50 mM tris buffer pH 7.5 is incubated with specified amount of HAP (or no HAP for control) by inversion for 15 min. […]

[2] = Half-life in human liver microsomes; type: in vitro ADME; conditions: HLM
[3] = tested on: human primary mesenchymal stem cells; conditions: cited from earlier work
spine fusion = conditions: compared to other analogues; cited from earlier work
bone disease models = conditions: rabbit spine fusion and rabbit calvarial defect models; cited from earlier work
[4] = tested on: M2-10B4 osteoprogenitor cells; test: Osteogenic gene expression (ALP, BSP, OSX) in M2-10B4 cells; type: cell-based; conditions: 6 and 14 days of treatment, compared with untreated control cells and unconjugated OXY133, ranking within each linker series
Procedure: (§1) Oxy133-ALN conjugates were tested in M2-10B4 osteoprogenitor cells to ascertain osteogenic activity and confirm their mechanism of action in inducing osteogenic differentiation. Alkaline phosphatase (ALP) activity, induction of the expression of osteogenic differentiation marker genes (ALP; bone sialoprotein (BSP); and osterix (OSX)), and ^45Ca incorporation as a measure of extracellular matrix mineralization were assayed by our previously reported protocols. The inventors have shown that these in vitro assays translate into in vivo stimulation of bone formation in a variety of animal models. The gene expression for ALP, BSP and OSX induced by the OXY133-ALN conjugates were measured after 6 and 14 days of treatment, the results after 6 days are shown in FIG. 1.
(§2) The succinate-linked series (Oxy166, Oxy167, Oxy174) and the carbamate series (Oxy175, Oxy176, and Oxy177) were assayed as groups. […] It may be that OXY133 must be released from the OXY133-ALN conjugates in order to induce osteogenic gene expression. […] A quantitative ^45Ca mineralization assay was performed with analogues and unconjugated OXY133 over a 30-day incubation period in M2 cells as shown in FIG. 2.

[5] = tested on: M2-10B4 osteoprogenitor cells; test: Alkaline phosphatase (ALP) activity induction; type: cell-based; conditions: M2-10B4 cells; result mirrored the gene expression ranking
Procedure: as §1, §2

Compound: CCCCCC[C@](C)(O)[C@H]1CC[C@H]2[C@@H]3C[C@H](O)[C@H]4C[C@@H](OC(=O)NCC(=O)NCCCC(O)(P(=O)(O)O)P(=O)(O)O)CC[C@]4(C)[C@H]3CC[C@@]21C [Oxy177]
- HAP binding affinity, 1H-NMR method [1]: binding affinity equivalent to the rest of the OXY-ALN series

Compound: CCCCCC[C@](C)(O)[C@H]1CC[C@H]2[C@@H]3C[C@H](O)[C@H]4C[C@@H](O)CC[C@]4(C)[C@H]3CC[C@@]21C [OXY133]
- half-life [2]: < 5 min
- osteogenesis in cultured human primary mesenchymal stem cells [3]: induce osteogenesis
- spine fusion in rats (spine fusion): induce spine fusion in rats in an accelerated manner
- osteogenesis in non-rodent models of bone disease (bone disease models): induce robust osteogenesis

Compound: CCCCCC[C@](C)(O)[C@H]1CC[C@H]2[C@@H]3C[C@H](OC(=O)NCC(=O)NCCCC(O)(P(=O)(O)O)P(=O)(O)O)[C@H]4C[C@@H](O)CC[C@]4(C)[C@H]3CC[C@@]21C [Oxy175]
- induction of osteogenic gene expression (ALP, BSP, OSX) [4]: most active
- ALP activity induction [5]: most active

From patent US10421773B2, “Bone-selective osteogenic oxysterol bisphosphonate analogs” (The Regents of the University of California, priority 2014, dated 2019)
